Measurements taken from US7439263B2, “Pyrrolidine and thiazolidine compounds” (Les Laboratoires Servier, priority 2004, dated 2008).
Structures can show the parent of a compound that is named as a salt.

Target: T1, Dipeptidyl-Peptidase IV (DPP IV) (Sus scrofa, UniProt P22411)
T1 construct: using 10 μl of the pig kidney preparation; from tissue; host or cells: pig kidney membrane fraction, solubilised with n-octyl-β-glucopyranoside
Assay: Inhibition of dipeptidyl-peptidase IV in pig kidney (Gly-Pro-pNA cleavage, absorbance at 405 nm)
Assay type: biochemical
Settings: pig kidney membrane preparation; substrate Gly-Pro-pNA; 60 min at 37° C.; geometric mean of the IC50s
Protocol: Inhibition of Dipeptidyl-Peptidase IV in Pig Kidney
Preparation of the Membrane Fraction of Pig Kidney
Pig kidney tissue (large white pig, 2 to 3 months' old) was homogenised (5 g of tissue in 15 ml of Tris buffer (114 mM, pH 7.8-8)) and then centrifuged at 150000×g for 30 min. at 4° C. The pellet was taken up in 15 ml of buffer and re-centrifuged at 150000×g for 30 min. at 4° C. With stirring, the resulting pellet was dissolved in 15 ml of buffer with 60 mM n-octyl-β-glucopyranoside for 30 min. at ambient temperature. After centrifugation at 150000×g for 30 min. at 4° C., the supernatant was dialysed (MWCO 12-14000) against 114 mM Tris pH 7.8-8, and then divided into aliquots at —80° C.
Measurement of Dipetidyl Peptidase IV (DPP IV) Activity
The enzymatic activity is measured by cleavage of a chromogenic substrate, glycyl-prolyl-p-nitroanilide (Gly-Pro-pNA), giving Gly-Pro and pNA (p-nitroaniline); the latter is detected by absorbance at 405 nm. The activity is measured in the absence (control) or in the presence of 10 μl of the inhibitors, using 10 μl of the pig kidney preparation (0.81 mU, 1U=1 μmol of pNA product/min. at 37° C.). Incubation is started by adding the substrate (250 μl), dissolved in Tris buffer (114 mM) pH 7.8-8, over a period of 60 min. at 37° C. […] The results were expressed as a percentage of the control, and the IC50 values (effective dose for 50% inhibition of the control activity) were determined using non-linear analysis between 0 and 100%, (GraphPad Prism version 4.01 for Windows). Each measurement was carried out in quadruplicate and each IC50 determination was carried out from 1 to 5 times.
The results obtained (geometric mean of the IC50s) for the compounds representing the invention are compiled in the following Table: […]

T1 sequence (P22411 whole entry): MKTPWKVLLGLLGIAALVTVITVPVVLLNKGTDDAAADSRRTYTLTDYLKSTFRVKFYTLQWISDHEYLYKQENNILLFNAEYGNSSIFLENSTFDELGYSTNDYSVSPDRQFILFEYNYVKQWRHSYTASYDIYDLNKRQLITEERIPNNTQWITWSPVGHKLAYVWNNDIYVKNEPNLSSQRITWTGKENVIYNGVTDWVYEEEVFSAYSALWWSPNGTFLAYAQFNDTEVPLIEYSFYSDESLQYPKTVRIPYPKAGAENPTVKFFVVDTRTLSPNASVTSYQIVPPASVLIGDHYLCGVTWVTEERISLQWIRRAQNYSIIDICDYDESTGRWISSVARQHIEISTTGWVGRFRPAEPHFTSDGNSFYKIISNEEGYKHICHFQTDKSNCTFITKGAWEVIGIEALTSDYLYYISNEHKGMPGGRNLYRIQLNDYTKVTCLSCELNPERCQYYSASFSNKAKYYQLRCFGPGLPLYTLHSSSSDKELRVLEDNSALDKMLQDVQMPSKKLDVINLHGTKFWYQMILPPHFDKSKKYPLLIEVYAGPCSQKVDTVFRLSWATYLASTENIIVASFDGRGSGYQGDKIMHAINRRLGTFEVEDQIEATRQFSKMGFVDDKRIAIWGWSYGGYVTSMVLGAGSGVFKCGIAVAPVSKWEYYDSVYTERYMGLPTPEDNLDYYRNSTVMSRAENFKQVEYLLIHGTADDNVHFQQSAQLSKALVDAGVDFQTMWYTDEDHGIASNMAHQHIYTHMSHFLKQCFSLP

Structure (SMILES) | IC50
N#C[C@@H]1CSCN1C(=O)CNC1CCC2(CCCCC2)CC1 [Example 18, (4R)-3-[(Spiro[5.5]undec-3-yl-amino)acetyl]-1,3-thiazolidine-4-carbonitrile trifluoroacetate] | 3.5 nM
N#C[C@@H]1CCCN1C(=O)CNC1(CO)CCC2(CCCCC2)CC1 [Example 5, (2S)-1-({[3-(Hydroxymethyl)spiro[5.5]undec-3-yl]amino}acetyl)-2-pyrrolidinecarbonitrile] | 68.5 nM
N#C[C@@H]1CCCN1C(=O)CNC1(CO)CC2(CCCC2)C1 [Example 17, (2S)-1-({[2-(Hydroxymethyl)spiro[3.4]oct-2-yl]amino}acetyl)-2-pyrrolidinecarbonitrile hydrochloride] | 43.6 nM
N#C[C@@H]1C[C@H](F)CN1C(=O)CNC1(CO)CCC2(CCOCC2)CC1 [Example 29, (2S,4S)4-Fluoro-1-({[9-(hydroxymethyl)-3-oxaspiro[5.5]undec-9-yl]-amino}acetyl)-2-pyrrolidinecarbonitrile] | 31.6 nM
N#C[C@@H]1CCCN1C(=O)CNC1CCC2(CC1)CC2 [Example 28, (2S)-1-[(Spiro[2.5]oct-6-ylamino)acetyl]-2-pyrrolidinecarbonitrile] | 171 nM
N#C[C@@H]1CC(F)(F)CN1C(=O)CNC1(CO)CCC2(CCOCC2)CC1 [Example 30, (2S)-4,4-Difluoro-1-({[9-(hydroxymethyl)-3-oxaspiro[5.5]undec-9-yl]amino}acetyl)-2-pyrrolidinecarbonitrile] | 20.5 nM
N#C[C@@H]1CCCN1C(=O)CNC1(CO)CCC2(CCOCC2)CC1 [Example 1, (2S)-1-({[9-(Hydroxymethyl)-3-oxaspiro[5.5]undec-9-yl]amino}-acetyl)-2-pyrrolidinecarbonitrile] | 76.1 nM
N#C[C@@H]1CCCN1C(=O)CNC1CCC2(CCSCC2)CC1 [Example 23, (2S)-1-[(3-Thiaspiro[5.5]undec-9-ylamino)acetyl]-2-pyrrolidine-carbonitrile hydrochloride] | 27 nM
N#C[C@@H]1CCCN1C(=O)CNC1CCC2(CCNCC2)CC1 [Example 20, (2S)-1-[(3-Azaspiro[5.5]undec-9-ylamino)acetyl]-2-pyrrolidine-carbonitrile bis(trifluoroacetate)] | 73.1 nM
N#C[C@@H]1CCCN1C(=O)CNC1CCC2(CC1)CCC1(CCCCC1)CC2 [Example 8, (2S)-1-[(Dispiro[5.2.5.2]hexadec-3-ylamino)acetyl]-2-pyrrolidine-carbonitrile] | 23 nM
N#C[C@@H]1CCCN1C(=O)CNC1CCC2(CCCCCCC2)CC1 [Example 6, (2S)-1-[(Spiro[5.7]tridec-3-ylamino)acetyl]-2-pyrrolidinecarbonitrile hydrochloride] | 27.2 nM
